# Earlier results, collected in US20190282525A1, “TIOPRONIN ORAL COMPOSITION” (CRONUS RESEARCH LABS PRIVATE LIMITED, priority 2018, published 2019).
# Conditions: 'might be expected'
smiles,measurement,setting,value
"CC(S)C(=O)NCC(=O)O (stereo not drawn) [tiopronin, α-mercaptopropionylglycine]",reduction in urinary cystine,tiopronin dosage of 1 g/day,250 to 350 mg/day
same,decline in urinary cystine,tiopronin dosage of 2 g/day,approximately 500 mg/day
